Tested on: VHL knockdown xenograft tumors
Experiment: FDG microPET imaging of xenograft tumors
Format: in vivo, SCID mice
Settings: within 24 hours, CCI-779 0.1 mg/kg i.p. every 12 hours; uptake normalized to liver
Method: FIGS. 5A-5B. […] (a) Representative images of two SCID-mice bearing isogenic ACHN-xenograft tumors on the right flank before and after two doses of CCI-799 (0.1 mg/kg). Arrows indicate the location of subcutaneous xenograft tumors (innate increased signal intensity due to abdominal brown fat and glial tissue are observed in the thorax and skull of the mice). (b) Quantification of FDG uptake (+/−SEM) in SCID-mice bearing either ACHN-vector or ACHN-CSCG VHL shRNA subcutaneous xenografts. FDG-tumor uptake was normalized to hepatic FDG-uptake for each mouse. n=3 per group and experiments were repeated twice with identical results.
Total RNA was extracted from SN12C-CSCG, ACHN-CSCG, SN12C-CSCG-VHLshRNA and ACHN-CSCG-VHL shRNA cell lines treated with vehicle or 10 nM of CCI-779 using the RNeasy kit (Qiagen). Two μg of total RNA was used as a template for the production of c DNA through reverse transcription. […] Threshold cycles (Ct's) for the RT samples were recorded. […] Tracer uptake by the tumors was expressed as the ratio between the maximum intratumoral and mean hepatic counts/pixel. All quantitative values are reported as mean±standard error of the mean (SEM).

SMILES: CO[C@H]1C[C@@H]2CC[C@@H](C)[C@@](O)(O2)C(=O)C(=O)N2CCCC[C@H]2C(=O)O[C@H]([C@H](C)C[C@@H]2CC[C@@H](OC(=O)C(C)(CO)CO)[C@H](OC)C2)CC(=O)[C@H](C)/C=C(\C)[C@@H](O)[C@@H](OC)C(=O)[C@H](C)C[C@H](C)/C=C/C=C/C=C/1C [CCI-779]
- FDG uptake of VHL knockdown tumors: reduced to baseline

Reference: patent US9261498B2, “Biomarker for sensitivity to mTOR inhibitor therapy in kidney cancer” (The Regents of the University of California, priority 2005, dated 2016)
